Measurements: US8691864B2, “Agents useful for reducing amyloid precursor protein and treating dementia and methods of use thereof” (priority 2000, dated 2014)

What was measured:
SH-SY-5Y Cells = assay: MTS toxicity assay in SHSY5Y cells; assay type: cell-based, human
Method: (§1) An enzyme-linked immunosorbent assay was developed to detect secreted APP in SHSY5Y cells, a human neuroblastoma cell line. The purpose of the screen was to discover small molecules that inhibit APP protein synthesis in SHSY5Y cells. SHSY5Y cells were plated at 1×10^5 cells/well in […] of DMEM containing 0.5% heat inactivated FBS in 96 well tissue culture treated plates (Falcon no. 35 3072). 144 MES compounds were tested at final concentrations of […] in 0.1% DMSO. Compounds were added and the plates incubated for 16 hours at 37° C./5% CO2. Maxisorp plates (Nunc no. 437958) were coated overnight with […] capture antibody (Biosource 44-100) diluted in Ca^++ and Mg^++ free PBS. Biosource 44-100 is a mouse mAb that recognizes aa 1-100 of human APP. Plates were blocked for 30 minutes with 1 mg/mL BSA in Ca^++ and Mg^++ free PBS. Plates were washed 3× with wash buffer (Ca^++ and Mg^++ free PBS+0.01% Tween20). […] of supernatants and non-cultured medium controls were transferred from culture plates to ELISA plates. Culture plates were reserved for toxicity analysis. Supernatants were incubated for 4 hours at RT on a plate shaker. After supernatant incubation, plates were washed 3×. Primary antibody (Signet Clone 6E-10 biotin) was added at 0.3125 mg/mL and incubated overnight at 4° C. The recognition site of 6E-10 is aa 1-17 of Ab. For detection, a 1:3000 dilution of horseradish peroxidase conjugated streptavidin (Endogen no. N-100) was incubated for 30 minutes. Plates were washed 3×. Enzyme activity was assessed by incubation with […] TMB substrate solution (Moss no. TMB-US) for 20 minutes. The reaction was stopped by the addition of […] 0.18M sulfuric acid. Optical density was read at 450 nm on Wallac Victor2 plate reader. During the first incubation, toxicity was determined using MTS assay, Cell Titer96 AQ reagent (Promega no. G5430). The background values from the non-cultured medium control were subtracted from the sample values and secreted APP levels and toxicity were expressed as % vehicle control. Of the 144 MES compounds screened, 12 inhibited secreted APP as determined by ELISA. The results are depicted in FIGS. 13A-M.
(§2) Using the experimental procedure outlined above, APP secretion and toxicity studies were performed on several other non-carbamate compounds, and the results are shown in Tables 3 and 4. The compound structures are provided in Table 2 in the application, which are identified by their MES number.

secreted APP = assay: ELISA for secreted APP in SHSY5Y cells; assay type: cell-based, human; details: 16 hours
Method: as §1, §2

SMILES | APP Toxicity SH-SY-5Y Cells (MTS assay) (SH-SY-5Y Cells; Dose 2 uM) | APP Toxicity SH-SY-5Y Cells (MTS assay) (SH-SY-5Y Cells; Dose 6 uM) | APP Toxicity SH-SY-5Y Cells (MTS assay) (SH-SY-5Y Cells; Dose 20 uM) | APP Secretion by SH-SY-5Y Cells (secreted APP; Dose 2 uM) | APP Secretion by SH-SY-5Y Cells (secreted APP; Dose 6 uM) | APP Secretion by SH-SY-5Y Cells (secreted APP; Dose 20 uM) | APP Toxicity SH-SY-5Y Cells (MTS assay) (SH-SY-5Y Cells; Dose 0.08 uM) | APP Toxicity SH-SY-5Y Cells (MTS assay) (SH-SY-5Y Cells; Dose 0.25 uM) | APP Toxicity SH-SY-5Y Cells (MTS assay) (SH-SY-5Y Cells; Dose 0.74 uM) | APP Secretion by SH-SY-5Y Cells (secreted APP; Dose 0.08 uM) | APP Secretion by SH-SY-5Y Cells (secreted APP; Dose 0.25 uM) | APP Secretion by SH-SY-5Y Cells (secreted APP; Dose 0.74 uM) | APP Toxicity SH-SY-5Y Cells (MTS assay) (SH-SY-5Y Cells; Dose 2 uM, listed as 9276) | APP Toxicity SH-SY-5Y Cells (MTS assay) (SH-SY-5Y Cells; Dose 6 uM, listed as 9276) | APP Toxicity SH-SY-5Y Cells (MTS assay) (SH-SY-5Y Cells; Dose 20 uM, listed as 9276)
CN(C)Cc1cc2c(cc1O)[C@]1(C)CCN(C)C1N2C (stereo partly drawn) [MES 9266] | 96.55 % vehicle control | 97.75 % vehicle control | 94.15 % vehicle control | 94.4 % vehicle control | 95.2 % vehicle control | 94.85 % vehicle control | – | – | – | – | – | – | – | – | –
Cc1cc2c(cc1O)[C@]1(C)CCN(C)C1N2C (stereo partly drawn) [MES 9267] | 97.98 % vehicle control | 96.72 % vehicle control | 15.52 % vehicle control | 93.68 % vehicle control | 68.64 % vehicle control | 22.22 % vehicle control | 101.5 % vehicle control | 102 % vehicle control | 101.9 % vehicle control | 97.8 % vehicle control | 97.43 % vehicle control | 97.43 % vehicle control | – | – | –
C/N=C(\C)c1cccc(OC)c1 [MES 9270] | 99.4 % vehicle control | 101.1 % vehicle control | 100.4 % vehicle control | 95.8 % vehicle control | 95.9 % vehicle control | 98.15 % vehicle control | – | – | – | – | – | – | – | – | –
CNC(C)c1cccc(OC)c1 (stereo not drawn) [MES 9271, 3-Methoxy-(1′-N-methylamino)-ethyl-benzene] | 99 % vehicle control | 99.475 % vehicle control | 94.1 % vehicle control | 96.1 % vehicle control | 89.9 % vehicle control | 63.825 % vehicle control | 103.55 % vehicle control | 103.45 % vehicle control | 103.1 % vehicle control | 96.6 % vehicle control | 87.95 % vehicle control | 92.2 % vehicle control | – | – | –
COc1ccc2c(c1)[C@]1(C)CCN(Cc3ccccc3)C1N2C (stereo partly drawn) [MES 9276] | – | – | – | 96.15 % vehicle control | 116.95 % vehicle control | 133.4 % vehicle control | – | – | – | – | – | – | 92.85 % vehicle control | 93.5 % vehicle control | 90.65 % vehicle control
COc1ccc2c(c1)[C@]1(C)CCN(Cc3ccccc3)C1N2C=O (stereo partly drawn) [MES 9277] | 98.25 % vehicle control | 98.3 % vehicle control | 91.1 % vehicle control | 98.25 % vehicle control | 109 % vehicle control | 113.6 % vehicle control | – | – | – | – | – | – | – | – | –
COc1ccc2c(c1)[C@]1(C)CCN(Cc3ccccc3)C1N2 (stereo partly drawn) [MES 9278] | 97.63 % vehicle control | 98.4 % vehicle control | 96.33 % vehicle control | 118.4 % vehicle control | 116.8 % vehicle control | 120.6 % vehicle control | – | – | – | – | – | – | – | – | –
C[C@@]12CCN(Cc3ccccc3)C1Nc1ccc(O)cc12 (stereo partly drawn) [MES 9279] | 68.63 % vehicle control | 46.67 % vehicle control | 38.63 % vehicle control | 43.27 % vehicle control | 42.37 % vehicle control | 18.4 % vehicle control | 102.9 % vehicle control | 101.1 % vehicle control | 100.1 % vehicle control | 97.8 % vehicle control | 98.4 % vehicle control | 97 % vehicle control | – | – | –
